Consider 5 compounds from patent US11142515B2, “Pyrazolyl-ureas as kinase inhibitors” (RESPIVERT LIMITED, priority 2014, dated 2021).

In one data set the target is T1, p38MAPKγ (MAPK12) (Homo sapiens, UniProt P53778).
T1 construct: purchased Life Technologies
T1 sequence (P53778 1-367): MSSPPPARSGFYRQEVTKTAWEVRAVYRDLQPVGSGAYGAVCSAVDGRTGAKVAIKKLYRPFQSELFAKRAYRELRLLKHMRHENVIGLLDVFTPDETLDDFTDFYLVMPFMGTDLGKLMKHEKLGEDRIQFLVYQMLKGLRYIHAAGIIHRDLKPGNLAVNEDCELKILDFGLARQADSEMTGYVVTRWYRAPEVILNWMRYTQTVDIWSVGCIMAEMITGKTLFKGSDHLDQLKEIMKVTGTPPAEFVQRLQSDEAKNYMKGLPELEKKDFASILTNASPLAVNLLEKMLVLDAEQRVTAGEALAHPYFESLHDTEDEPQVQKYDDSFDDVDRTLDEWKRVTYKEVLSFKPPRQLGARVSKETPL
As to the kind of experiment: p38 MAPKγ enzyme inhibition (Z-LYTE FRET). It counts as biochemical. The following applies: Table 2B, unit inferred; read-out: p38 MAPKγ (Enzyme Profile). In outline:
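Z-LYTE read-out: after 1 h protease development, only non-phosphorylated peptide is cleaved, and the donor/acceptor (coumarin/fluorescein) ratio reports phosphorylation. Beforehand, enzyme and compound (stock concentrations 0.0012–40 μg/mL) were preincubated 2 h at RT, then the kinase reaction ran 1 h at RT with peptide and ATP (8 μM and 400 μM stocks).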

Data set [1] addresses T2, p38 MAPKα isoform (MAPK14) (Homo sapiens, UniProt Q16539).
T2 construct: purchased Life Technologies
As to the kind of experiment: p38 MAPKα enzyme inhibition (Z-LYTE FRET). The class given is biochemical. To be noted: Table 2B, unit inferred; read-out: p38 MAPKα (Enzyme Profile). The method in brief: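 Recombinant human MAPK14 (40 ng/mL stock) was preincubated 2 h at RT with compound (stock dilutions 0.0012-40 μg/mL). The Z-LYTE FRET read-out used a MAPKAP-K2-derived peptide, and protease development for 1 h cleaved only non-phosphorylated peptide. Phosphorylation was calculated from the coumarin/fluorescein emission ratio.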

Data set [2] concerns sputum macrophages from COPD patients. In words: Cytokine production in LPS-treated sputum macrophages from COPD patients. The class given is cell-based, human. To be noted: Homo sapiens, Macrophage; read-out: E-max (maximum inhibition), IL-6 production in LPS-treated sputum macrophages. The procedure:
Patients with COPD inhaled a nebulised solution of 3% (w/v) hypertonic saline using an ultrasonic nebuliser (Devilbiss, Carthage, Mo.) with tidal breathing for 5 min. This procedure was repeated a maximum of three times until enough sputum was obtained. The sputum samples were homogenized and mixed vigorously using a vortex mixer in 0.02% v/v dithiothreitol (DTT) solution. The samples were re-suspended in PBS (40 mL) followed by centrifugation at 1500 rpm at 4° C. for 10 min to obtain sputum cell pellets. The pellets were washed with PBS (40 mL). The sputum cells were then re-suspended in 4 mL macrophage serum-free medium (macrophage-SFM, Life technologies, containing 20 U/mL penicillin, 0.02 mg/mL streptomycin and 5 μg/mL amphotericin B) and seeded on high bound 96-well plate, followed by incubation for 1 h at 37° C. and at 5% CO2 to allow the macrophages to attach to the bottom of the plate. The cells on the plate were washed with fresh macrophage-SFM (200 μL/well) to remove neutrophils and other contaminated cells. The adherent cells (mainly sputum macrophages) on the plate were used for further analysis. Sputum inductions were conducted in Quintiles Drug Research Unit at Guys Hospital and ethics approval and written informed consent was obtained by Quintiles.
Where appropriate, 1 μL of a solution containing either the test compound or reference article at the stated concentrations (either 0.1 μg/mL, 0.01 μg/mL, or 0.001 μg/mL) or alternatively 1 μL of DMSO as the vehicle control was added to each well (200 μL in media) and the cells were incubated for 2 h. The cells were stimulated with LPS solution (50 μL, final concentration: 1 μg/mL) and incubated for 18 h at 37° C. and 5% CO2. The supernatant was then collected and kept at −80° C. Suitable luminex kits were used to measure the selected analytes. After thawing the supernatant, the magnetic antibody beads were multiplexed and incubated in a 96-well plate with standard, background solution or the appropriate volume of sample overnight with shaking at 4° C. After washing twice with 200 μL of wash buffer provided by the kit per well using a magnetic plate washer, the beads were incubated for 1 h at RT with the biotin conjugated antibody solution provided by the kit with shaking. Streptavidin solution was added for 30 min with shaking at RT. After washing with 200 μL wash buffer per well, the beads were resuspended in sheath fluid (150 μL) and analyzed immediately. The level of each analyte in the supernatant was calculated using Xcel Fit software with a 4 or 5-parameter equation using each standard curve. The inhibitions of each cytokine production were calculated at each concentration by comparison with vehicle control.

For data set [3], the system named is neutrophil accumulation in BALF. In words: LPS-induced neutrophil accumulation in mice. It counts as in vivo, Balb/c mice. The following applies: 1.75 μg/mouse. The procedure:
Non-fasted Balb/c mice were […] by the intra tracheal route with either vehicle, or the test substance at the indicated times (within the range 2-8 h) before stimulation of the inflammatory response by application of an LPS challenge. At T=0, mice were placed into an exposure chamber and exposed to LPS (7.0 mL, 0.5 mg/mL solution in PBS for 30 min). After a further 8 h the animals were anesthetized, their tracheas cannulated and BALF extracted by infusing and then withdrawing from their lungs 1.0 mL of PBS via the tracheal catheter. Total and differential white cell counts in the BALF samples were measured using a Neubaur haemocytometer. Cytospin smears of the BALF samples were prepared by centrifugation at 200 rpm for 5 min at RT and stained using a DiffQuik stain system (Dade Behring). Cells were counted using oil immersion microscopy. Data for neutrophil numbers in BAL are shown as mean±S.E.M. (standard error of the mean). The percentage inhibition of neutrophil accumulation was calculated for each treatment relative to vehicle treatment.

In data set [4] the test system is alveolar macrophages and neutrophils in BALF. As to the kind of experiment: Cigarette smoke model: macrophages and neutrophils in BALF. The class given is in vivo, A/J mice. To be noted: 1.75 μg/mouse (35 μL, bid, i.n.). The procedure: A/J mice (males, 5 weeks old) were exposed to cigarette smoke (4% cigarette smoke, diluted with air) for 30 min/day for 11 days using a Tobacco Smoke Inhalation Experiment System for small animals (Model SIS-CS; Sibata Scientific Technology, Tokyo, Japan). […] At 12 h after the last […], each of the animals was anesthetized, the trachea cannulated and bronchoalveolar lavage fluid (BALF) was collected. The numbers of alveolar macrophages and neutrophils were determined by FACS analysis (EPICS® ALTRA II, Beckman Coulter, Inc., Fullerton, Calif., USA) using anti-mouse MOMA2 antibody (macrophage) or anti-mouse 7/4 antibody (neutrophil). BALF was centrifuged and the supernatant was collected. The level of keratinocyte chemoattractant (KC; CXCL1) in BALF was quantitated using a Quantikine® mouse KC ELISA kit (R&D systems, Inc., Minneapolis, Minn., USA).

In another data set the test system is d-U937 cells. As to the kind of experiment: Cell viability: MTT assay in differentiated U937 cells. It counts as cell-based, human. The following applies: 10 μg/mL. The procedure:
Differentiated U937 cells were pre-incubated with each test compound (final concentration 10 μg/mL in 200 μL media indicated below) under two protocols: the first for 4 h in 5% FCS RPMI1640 media and the second in 10% FCS RPMI1640 media for 24 h. The supernatant was replaced with new media (200 μL) and MTT stock solution (10 μL, 5 mg/mL) was added to each well. After incubation for 1 h the media were removed, DMSO (200 μL) was added to each well and the plates were shaken lightly for 1 h prior to reading the absorbance at 550 nm. The percentage loss of cell viability was calculated for each well relative to vehicle (0.5% DMSO) treatment. Consequently an apparent increase in cell viability for drug treatment relative to vehicle is tabulated as a negative percentage.

T2 sequence (Q16539 whole entry, canonical isoform): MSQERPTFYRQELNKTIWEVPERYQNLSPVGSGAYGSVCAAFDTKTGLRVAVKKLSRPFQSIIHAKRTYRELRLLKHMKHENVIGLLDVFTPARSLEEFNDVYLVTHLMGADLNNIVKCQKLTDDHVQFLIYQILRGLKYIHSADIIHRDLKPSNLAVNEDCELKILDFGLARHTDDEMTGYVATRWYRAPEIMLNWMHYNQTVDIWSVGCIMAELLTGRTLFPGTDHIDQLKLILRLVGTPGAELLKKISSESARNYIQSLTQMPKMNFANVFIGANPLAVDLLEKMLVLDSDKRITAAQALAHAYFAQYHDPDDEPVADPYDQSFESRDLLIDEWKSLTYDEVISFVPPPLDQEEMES

With `Cc1ccc(-n2nc(C(C)(C)C)cc2NC(=O)Nc2ccc(OCc3ccnc(Nc4cnc(C(=O)NCCN(C)C)cn4)c3)c3ccccc23)cc1` [Example 268, 5-((4-(((4-(3-(3-(tert-butyl)-1-(p-tolyl)-1H-pyrazol-5-yl)ureido)naphthalen-1-yl)oxy)methyl)pyridin-2-yl)amino)-N-(2-(dimethylamino)ethyl) pyrazine-2-carboxamide], the IC50 on p38MAPKγ (MAPK12) is 74 nM; in data set [1], below 0.42 nM.

With `COCc1cccc(-n2nc(C(C)(C)C)cc2NC(=O)Nc2ccc(OCc3ccnc(Nc4cnc(C(=O)N5CCN(C)CC5)cn4)c3)c3ccccc23)c1` [Example 269, 1-(3-(tert-butyl)-1-(3-(methoxymethyl)phenyl)-1H-pyrazol-5-yl)-3-(4-((2-((5-(4-methylpiperazine-1-carbonyl)pyrazin-2-yl)amino)pyridin-4-yl)methoxy)naphthalen-1-yl)urea], the IC50 on p38MAPKγ (MAPK12) is 138 nM; in data set [1] it was below 0.4 nM.

For `COCc1cccc(-n2nc(C(C)(C)C)cc2NC(=O)Nc2ccc(OCc3ccnc(Nc4cnc(C(=O)NCCN5CCOCC5)cn4)c3)c3ccccc23)c1` [Example 270, 5-((4-(((4-(3-(3-(tert-butyl)-1-(3-(methoxymethyl)phenyl)-1H-pyrazol-5-yl)ureido)naphthalen-1-yl)oxy)methyl)pyridin-2-yl)amino)-N-(2-morpholinoethyl) pyrazine-2-carboxamide], the IC50 on p38MAPKγ (MAPK12) was 66 nM; in data set [1] it was 4.5 nM.

In the case of `CCC(=O)O[C@]1(C(=O)SCF)[C@H](C)C[C@H]2[C@@H]3C[C@H](F)C4=CC(=O)C=C[C@]4(C)[C@@]3(F)[C@@H](O)C[C@@]21C` [Fluticasone propionate, fluticasone propionate, reference compound], the inhibition at 0.1 µg/mL in data set [2] came to 42%. The “inhibition of LPS-induced neutrophil accumulation” value in data set [3] is given as above 80%. Moreover, the “neutrophil or macrophage accumulation into airways (cigarette smoke model)” value in data set [4] is on record as “did not inhibit”.

For the compound `COCC(=O)Nc1cc(Oc2ccc(NC(=O)Nc3cc(C(C)(C)C)nn3-c3ccc(C)cc3)c3ccccc23)ccn1` [Reference Compound, N-(4-(4-(3-(3-tert-butyl-1-p-tolyl-1H-pyrazol-5-yl)ureido)naphthalen-1-yloxy)pyridin-2-yl)-2-methoxyacetamide, reference compound], the “MTT Assay Cell viability at time point indicated in d-U937 Cells, 4 h” value in the data set with d-U937 cells (4 h) was “− (−ve and +ve indicate the value is below and above, respectively, the no significant effect threshold defined as 30% inhibition at 10 μg/mL at the time point indicated)”. Further, the “MTT Assay Cell viability at time point indicated in d-U937 Cells, 24 h” value in the data set with d-U937 cells (24 h) is “+ (−ve and +ve indicate the value is below and above, respectively, the no significant effect threshold defined as 30% inhibition at 10 μg/mL at the time point indicated)”.
